Source: ChEMBL document CHEMBL4007419, “Discovery of hyaluronidase inhibitors from natural products and their mechanistic characterization under DMSO-perturbed assay conditions” (Bioorg Med Chem Lett, 2017)
Active and inactive are the calls of the source. The calls are words filed in the database; no cut-off is given here.

Tests used:
[1] = species on record: Homo sapiens; test: Inhibition of CaCl2 activated hyaluronidase (unknown origin) up to 400 uM using hyaluronic acid as substrate preincubated for 20 mins followed by substrate addition measured after 10 mins in presence of up to 15% DMSO by colorimetric method
[2] = Inhibition of hyaluronidase (unknown origin) using hyaluronic acid as substrate preincubated for 20 mins followed by substrate addition measured after 40 mins by colorimetric method; design: species or system Homo sapiens
[3] = Inhibition of hyaluronidase (unknown origin) using hyaluronic acid as substrate preincubated for 20 mins followed by CaCl2 activation for 20 mins and subsequent substrate addition measured after 10 mins by colorimetric method; design: species or system Homo sapiens
[4] = Inhibition of CaCl2 activated hyaluronidase (unknown origin) using hyaluronic acid as substrate preincubated for 20 mins followed by substrate addition measured after 10 mins by colorimetric method; design: species or system Homo sapiens
[5] = Inhibition of CaCl2 activated hyaluronidase (unknown origin) using hyaluronic acid as substrate preincubated for 20 mins followed by substrate addition measured after 10 mins in presence of Triton-X-100 by colorimetric method; design: species or system Homo sapiens
[6] = species on record: Homo sapiens; test: Ratio of IC50 for CaCl2 activated hyaluronidase (unknown origin) to IC50 for hyaluronidase (unknown origin) using hyaluronic acid as substrate preincubated for 20 mins followed by CaCl2 activation
[7] = species on record: Homo sapiens; test: Inhibition of CaCl2 activated hyaluronidase (unknown origin) up to 3000 uM using hyaluronic acid as substrate preincubated for 20 mins followed by substrate addition measured after 10 mins in presence of up to 21% DMSO by colorimetric method
[8] = species on record: Homo sapiens; test: Inhibition of CaCl2 activated hyaluronidase (unknown origin) up to 4000 uM using hyaluronic acid as substrate preincubated for 20 mins followed by substrate addition measured after 10 mins in presence of up to 20% DMSO by colorimetric method
[9] = Inhibition of CaCl2 activated hyaluronidase (unknown origin) using hyaluronic acid as substrate preincubated for 20 mins followed by substrate addition measured after 10 mins in presence of dithiothreitol by colorimetric method; design: species or system Homo sapiens
[10] = species on record: Homo sapiens; test: Non-competitive inhibition of hyaluronidase (unknown origin) up to 1000 um using hyaluronic acid as substrate preincubated for 20 mins followed by substrate addition measured after 10 mins by Lineweaver-Burk plot analysis

CC1(C)CC[C@]2(C(=O)O[C@@H]3O[C@H](CO)[C@@H](O)[C@H](O)[C@H]3O)CC[C@]3(C)C(=CC[C@@H]4[C@@]5(C)CC[C@H](O[C@@H]6O[C@H](C(=O)O)[C@@H](O[C@@H]7O[C@@H](CO)[C@H](O)[C@H]7O)[C@H](O)[C@H]6O)C(C)(C)[C@@H]5CC[C@]43C)[C@@H]2C1
inhibition [1]: inactive | IC50 [2]: 24 µM | IC50 [3]: 30 µM | IC50 [4]: 80 µM | IC50 [5]: 190 µM | Ratio IC50 [6]: 2.5

O=C(O[C@@H]1Cc2c(O)cc(O)cc2O[C@@H]1c1cc(O)c(O)c(O)c1)c1cc(O)c(O)c(O)c1
inhibition [7]: Active

Oc1cc(O)c2c(c1)O[C@H](c1ccc(O)c(O)c1)[C@@H](O)C2
inhibition [8]: Active

Oc1cc(O)c2c(c1)O[C@@H](c1ccc(O)c(O)c1)[C@H](O)C2 [(-)-CATECHIN]
IC50 [2]: 1100 µM

Oc1cc(O)c2c(c1)O[C@H](c1ccc(O)c(O)c1)[C@H](O)C2 [(-)-EPICATECHIN]
IC50 [2]: 804 µM | IC50 [3]: 685 µM | IC50 [4]: 789 µM | IC50 [5]: 734 µM | IC50 [9]: 806 µM | inhibition [7]: Active | inhibition [10]: Active

O=C(O)[C@H]1O[C@@H](Oc2cc3oc(-c4ccccc4)cc(=O)c3c(O)c2O)[C@H](O)[C@@H](O)[C@@H]1O [BAICALIN]
IC50 [2]: 506 µM

CC1(C)CC[C@]2(C(=O)O[C@@H]3O[C@H](CO)[C@@H](O)[C@H](O)[C@H]3O)CC[C@]3(C)C(=CC[C@@H]4[C@@]5(C)CC[C@H](O[C@@H]6O[C@H](C(=O)O)[C@@H](O)[C@H](O)[C@H]6O[C@@H]6O[C@H](CO)[C@@H](O)[C@H](O)[C@H]6O)C(C)(C)[C@@H]5CC[C@]43C)[C@@H]2C1 [GINSENOSIDE R0]
IC50 [2]: 34 µM

CC1(C)[C@@H](O[C@H]2O[C@H](C(=O)O)[C@@H](O)[C@H](O)[C@H]2O[C@@H]2O[C@H](C(=O)O)[C@@H](O)[C@H](O)[C@H]2O)CC[C@]2(C)[C@H]3C(=O)C=C4[C@@H]5C[C@@](C)(C(=O)O)CC[C@]5(C)CC[C@@]4(C)[C@]3(C)CC[C@@H]12 [GLYCYRRHIZIN]
IC50 [2]: 8.5 µM
